Results from patent US20240335462A1, “SULFUR/PHOSPHORUS-CONTAINING ARYL COMPOUND AND APPLICATION THEREOF” (MEDSHINE DISCOVERY INC., priority 2021, published 2024).
Where two headings read alike, the source gives them in different places. Marks after values point to notes of the source that are not given here.

Tests used:
[1] = Pharmacokinetic testing in rats; type: in vivo, male SD rats; settings: rat; for C0: read-out: Starting concentration C0; for Cmax: read-out: Peak concentration Cmax; for AUC(0-t): read-out: Area under the curve AUC0-last
Procedure: The objective was to study the pharmacokinetic behavior of the compound of the present disclosure in rats and evaluate the pharmacokinetic characteristics, using male SD rats aged 7 to 9 weeks as test animals. The drug concentrations in plasma at different time points after a single intravenous injection (IV) and oral administration (P0) of the compound were determined using LC/MS/MS.
The pharmacokinetic characteristics of the compound in rodents following intravenous injection and oral administration were tested using a standard protocol. Test animals were fasted for 10 to 14 hours before administration and allowed to feed 4 hours post-administration. The compound was prepared into a clear solution with the appropriate solvent for both IV (intravenous injection) and PO (oral gavage) administration. The solvent was […]+10% solutol+80% (10% HP-β-CD aqueous solution). Whole blood samples were collected within 24 hours, centrifuged at 6000 g for 3 minutes, and the supernatant was separated to obtain plasma samples. Protein precipitation was performed by adding four times the volume of acetonitrile solution containing internal standard to the plasma samples. After centrifugation, the supernatant was added with an equal volume of water and then centrifuged before being subjected to LC-MS/MS analysis for quantifying plasma drug concentration. Pharmacokinetic parameters such as peak concentration, time to peak concentration, clearance, half-life, area under the drug-time curve, and bioavailability were calculated.

[2] = tested on: IL-23-induced psoriasis-like skin lesions; assay: Mouse psoriasis-like model induced by IL-23; type: in vivo, C57BL/6 mice; set-up: Total score for epidermal hyperplasia of ear pinnae / AUC of total score for epidermal hyperplasia of ear pinnae / Pathological score: Degree of keratinization / Pathological score: Epidermal thickness / Pathological score: Dermal thickness / Pathological score: Inflammatory cell infiltration / Comprehensive pathological score: scale not given here; settings: for AUC of total score for epidermal hyperplasia of ear pinnae: Day 0 to Day 8; for Comprehensive pathological score / Pathological score: Degree of keratinization / Pathological score: Dermal thickness / Pathological score: Epidermal thickness / Pathological score: Inflammatory cell infiltration: right ear H&E sections
Source text: The purpose of this experiment was to evaluate the prophylactic and therapeutic effect of the test substance on IL-23-induced psoriasis-like skin lesions in mice by intradermal injection of IL-23 into the ear pinnae in a psoriasis-like skin lesion model.
Female C57BL/6 mice of qualified body weight were randomly divided into groups, with 6 mice per group. The grouping and administration information was as follows. The groups were: blank control group, model group, positive control Ustekinumab (5 mg/kg) group, WX-011A hydrochloride (30, 50 mg/kg) group, and WX-020 sulfate (30, 50 mg/kg) group. Except for the blank control group, the animals in the other groups received an intradermal injection of IL-23 (3 μg/10 μL/mouse/day, QD) in the right ear for 8 consecutive days (Day 0 to Day 7). The blank control group received an intradermal injection of an equal volume of saline solution (10 μL/mouse/day, QD) in the right ear for 8 consecutive days (Day 0 to Day 7). Concurrent with model induction, the solvent or test drug was orally administered twice a day (Bid) at 6-hour intervals for 8 consecutive days (Day 0 to Day 7). The positive control was subcutaneously injected on Day 0 and Day 3 (a total of 2 doses). During the administration period, the body weight of the animals was monitored every two days. On Day 0, Day 2, Day 4, Day 6 (all before IL-23 injection), and Day 8, the thickness of the right ear of the mice was measured, and the appearance of the ear pinnae was observed and scored.
The compounds were all prepared into a clear solution with 10% DMSO+[…] as a solvent for PO (oral gavage) administration. Administration volume parameters: 10 mL/kg based on the body weight of the mice.
After grouping, IL-23 (3 μg/10 μL/mouse/day, QD) was injected intradermally into the right ears of the mice for 8 consecutive days (Day 0 to Day 7). Measurements of the thickness of the right ear and observations and scoring of the appearance of the ear pinnae were performed on Day 0, Day 2, Day 4, Day 6 (all before IL-23 injection), and Day 8. At the end of the experiment (Day 8), the left ear tissues of the mice from groups G4 to G10 (3 animals per group at each time point) were collected. The right ear, which had been modeled, was excised, an 8 mm ear punch was taken along the edge of the pinna, and its weight was measured. The excised right ear tissues were fixed in formalin for histopathological examination (H&E staining).
Concurrent with model induction, corresponding drug treatment was given for administration. Except for the positive control drug (Ustekinumab), which was subcutaneously injected on Day 0 and Day 3 (once a day), control and test drugs for each dose group were orally administered by gavage twice a day at 6-hour intervals for 8 consecutive days (Day 0 to Day 7).
The pathological scoring of mouse ear tissue sections was conducted according to the criteria in Table 33.
The experimental data are represented as Mean±SD; statistical analysis was performed using IBM SPSS Statistics 21, with p<0.05 considered to indicate a statistically significant difference between the two groups. The effect of the test substance on the thickness of mouse ears in the IL-23 induced mouse pinna epidermal hyperplasia model is shown in Table 34. The effect of the test substance on the total score and AUC for […] induced mouse pinna epidermal hyperplasia is shown in Table 35.

SMILES: CNC(=O)c1nnc(NC(=O)C2CC2)cc1Nc1cccc(-c2ncc(S(=N)(=O)C(C)C)cn2)c1OC.Cl (single isomer, unassigned) [Hydrochloride of WX-011A]
- Apparent clearance Cl ([1]; IV 1 mg/kg): 16.8 mL/min/kg
- Apparent volume of distribution Vd ([1]; IV 1 mg/kg): 0.5 L/kg
- Area under the curve AUC0-last ([1]; IV 1 mg/kg): 2.075 µM·h
- Half-life T1/2 ([1]; IV 1 mg/kg): 36 min
- C0 ([1]; IV 1 mg/kg): 4.54 µM
- Area under the curve AUC0-last ([1]; PO 10 mg/kg): 8.202 µM·h
- Bioavailability F % ([1]; PO 10 mg/kg): 41%
- Time to peak concentration Tmax ([1]; PO 10 mg/kg): 30 min
- Cmax ([1]; PO 10 mg/kg): 4.39 µM
- Ear thickness (mm) ([2]; 30 mg/kg PO BID, Day 0): 0.199 mm
- Total score for epidermal hyperplasia of ear pinnae ([2]; 30 mg/kg PO BID, Day 0): 0.00
- AUC of total score for epidermal hyperplasia of ear pinnae ([2]; 30 mg/kg PO BID): 3.17**
- Ear thickness (mm) ([2]; 30 mg/kg PO BID, Day 2): 0.274* mm
- Total score for epidermal hyperplasia of ear pinnae ([2]; 30 mg/kg PO BID, Day 2): 0.00
- Ear thickness (mm) ([2]; 30 mg/kg PO BID, Day 4): 0.299* mm
- Total score for epidermal hyperplasia of ear pinnae ([2]; 30 mg/kg PO BID, Day 4): 0.33*
- Ear thickness (mm) ([2]; 30 mg/kg PO BID, Day 6): 0.297** mm
- Total score for epidermal hyperplasia of ear pinnae ([2]; 30 mg/kg PO BID, Day 6): 0.67**
- Ear thickness (mm) ([2]; 30 mg/kg PO BID, Day 8): 0.301** mm
- Total score for epidermal hyperplasia of ear pinnae ([2]; 30 mg/kg PO BID, Day 8): 1.17**
- Comprehensive pathological score ([2]; 30 mg/kg PO BID): 1.17**
- Pathological score: Degree of keratinization ([2]; 30 mg/kg PO BID): 0.17**
- Pathological score: Dermal thickness ([2]; 30 mg/kg PO BID): 0.17
- Pathological score: Epidermal thickness ([2]; 30 mg/kg PO BID): 0.67**
- Pathological score: Inflammatory cell infiltration ([2]; 30 mg/kg PO BID): 0.17**
- Ear thickness (mm) ([2]; 50 mg/kg PO BID, Day 0): 0.197 mm
- Total score for epidermal hyperplasia of ear pinnae ([2]; 50 mg/kg PO BID, Day 0): 0.00
- AUC of total score for epidermal hyperplasia of ear pinnae ([2]; 50 mg/kg PO BID): 2.67**
- Ear thickness (mm) ([2]; 50 mg/kg PO BID, Day 2): 0.279^p=0.081 mm
- Total score for epidermal hyperplasia of ear pinnae ([2]; 50 mg/kg PO BID, Day 2): 0.00
- Ear thickness (mm) ([2]; 50 mg/kg PO BID, Day 4): 0.291 * mm
- Total score for epidermal hyperplasia of ear pinnae ([2]; 50 mg/kg PO BID, Day 4): 0.17**
- Ear thickness (mm) ([2]; 50 mg/kg PO BID, Day 6): 0.299** mm
- Total score for epidermal hyperplasia of ear pinnae ([2]; 50 mg/kg PO BID, Day 6): 0.67**
- Ear thickness (mm) ([2]; 50 mg/kg PO BID, Day 8): 0.300** mm
- Total score for epidermal hyperplasia of ear pinnae ([2]; 50 mg/kg PO BID, Day 8): 1.00*
- Comprehensive pathological score ([2]; 50 mg/kg PO BID): 1.83**
- Pathological score: Degree of keratinization ([2]; 50 mg/kg PO BID): 0.33**
- Pathological score: Dermal thickness ([2]; 50 mg/kg PO BID): 0.50
- Pathological score: Epidermal thickness ([2]; 50 mg/kg PO BID): 0.50**
- Pathological score: Inflammatory cell infiltration ([2]; 50 mg/kg PO BID): 0.50**

SMILES: CNC(=O)c1cnc(NC(=O)C2CC2)cc1Nc1cccc(-c2ccc(S(=O)(=O)C(C)C)cn2)c1OC.O=S(=O)(O)O [Sulfate of WX-020]
- Ear thickness (mm) ([2]; 30 mg/kg PO BID, Day 0): 0.197 mm
- Total score for epidermal hyperplasia of ear pinnae ([2]; 30 mg/kg PO BID, Day 0): 0.00
- AUC of total score for epidermal hyperplasia of ear pinnae ([2]; 30 mg/kg PO BID): 7.67
- Ear thickness (mm) ([2]; 30 mg/kg PO BID, Day 2): 0.283 mm
- Total score for epidermal hyperplasia of ear pinnae ([2]; 30 mg/kg PO BID, Day 2): 0.00
- Ear thickness (mm) ([2]; 30 mg/kg PO BID, Day 4): 0.311 mm
- Total score for epidermal hyperplasia of ear pinnae ([2]; 30 mg/kg PO BID, Day 4): 0.50*
- Ear thickness (mm) ([2]; 30 mg/kg PO BID, Day 6): 0.351** mm
- Total score for epidermal hyperplasia of ear pinnae ([2]; 30 mg/kg PO BID, Day 6): 2.5
- Ear thickness (mm) ([2]; 30 mg/kg PO BID, Day 8): 0.343^p=0.082 mm
- Total score for epidermal hyperplasia of ear pinnae ([2]; 30 mg/kg PO BID, Day 8): 1.67*
- Comprehensive pathological score ([2]; 30 mg/kg PO BID): 4.17**
- Pathological score: Degree of keratinization ([2]; 30 mg/kg PO BID): 0.83**
- Pathological score: Dermal thickness ([2]; 30 mg/kg PO BID): 1.33
- Pathological score: Epidermal thickness ([2]; 30 mg/kg PO BID): 0.83**
- Pathological score: Inflammatory cell infiltration ([2]; 30 mg/kg PO BID): 1.17**
- Ear thickness (mm) ([2]; 50 mg/kg PO BID, Day 0): 0.195 mm
- Total score for epidermal hyperplasia of ear pinnae ([2]; 50 mg/kg PO BID, Day 0): 0.00
- AUC of total score for epidermal hyperplasia of ear pinnae ([2]; 50 mg/kg PO BID): 5.00*
- Ear thickness (mm) ([2]; 50 mg/kg PO BID, Day 2): 0.289 mm
- Total score for epidermal hyperplasia of ear pinnae ([2]; 50 mg/kg PO BID, Day 2): 0.00
- Ear thickness (mm) ([2]; 50 mg/kg PO BID, Day 4): 0.303* mm
- Total score for epidermal hyperplasia of ear pinnae ([2]; 50 mg/kg PO BID, Day 4): 0.50*
- Ear thickness (mm) ([2]; 50 mg/kg PO BID, Day 6): 0.311** mm
- Total score for epidermal hyperplasia of ear pinnae ([2]; 50 mg/kg PO BID, Day 6): 1.33*
- Ear thickness (mm) ([2]; 50 mg/kg PO BID, Day 8): 0.317** mm
- Total score for epidermal hyperplasia of ear pinnae ([2]; 50 mg/kg PO BID, Day 8): 1.33**
- Comprehensive pathological score ([2]; 50 mg/kg PO BID): 2.17**
- Pathological score: Degree of keratinization ([2]; 50 mg/kg PO BID): 0.33**
- Pathological score: Dermal thickness ([2]; 50 mg/kg PO BID): 0.50
- Pathological score: Epidermal thickness ([2]; 50 mg/kg PO BID): 0.67**
- Pathological score: Inflammatory cell infiltration ([2]; 50 mg/kg PO BID): 0.67**

SMILES: CNC(=O)c1cnc(NC(=O)C2CC2)cc1Nc1cccc(-c2ccc(S(=O)(=O)C(C)C)cn2)c1OC [WX-020]
- Vd ([1]; male, SD, plasma, IV 3 mg/kg, read-out: Apparent volume of distribution Vd): 0.9 L/kg
- AUC(0-t) ([1]; male, SD, plasma, IV 3 mg/kg): 2.61 µM·h
- half-life ([1]; male, SD, plasma, IV 3 mg/kg, read-out: Half-life T1/2 (converted)): 54 min
- C0 ([1]; male, SD, plasma, IV 3 mg/kg): 3.03 µM
- AUC(0-t) ([1]; male, SD, plasma, PO 10 mg/kg): 9.76 µM·h
- bioavailability ([1]; male, SD, plasma, PO 10 mg/kg, read-out: Bioavailability F%): 39%
- Cmax ([1]; male, SD, plasma, PO 10 mg/kg): 3.38 µM
- Tmax ([1]; male, SD, plasma, PO 10 mg/kg, read-out: Time to peak concentration Tmax): 48 min
- Apparent clearance Cl ([1]; IV 3 mg/kg): 13.1 mL/min/kg
